From PMC8398255, “Synthesis of 3,5-Bis(trifluoromethyl)phenyl-Substituted Pyrazole Derivatives as Potent Growth Inhibitors of Drug-Resistant Bacteria” (Molecules, 2021)
Values after ≈ are worked out from the molar mass of the structure shown.

What was measured:
[1] = system: E. faecalis ATCC 29212 (Ef12); test: MIC, microdilution (CLSI); assay type: cell-based; details: Enterococcus faecalis, ATCC29212; Ef12, antibiotic susceptible E. faecalis ATCC 29212; n = 3; read-out: MIC
Procedure: (§1) Compounds were dissolved in dimethyl sulfoxide (DMSO) to achieve a starting concentration of 32 µg/mL as described by us previously. Compounds were further diluted two-fold across the 96-well honeycomb plate columns in cation adjusted Mueller Hinton broth (CAMHB), and bacterial culture was added. Plates were incubated for 18–20 h at 35 ℃ before determining the minimum concentrations at which wells had no visible turbidity to the naked eye. The MIC values were determined from at least a duplicate result obtained from three independent experiments using fresh bacterial cultures on different days.

[2] = system: S. aureus ATCC 33592 (Sa92); test: MIC, microdilution (CLSI); assay type: cell-based; details: Staphylococcus aureus, ATCC33592; Sa92, methicillin-resistant S. aureus ATCC 33592; n = 3; read-out: MIC
Procedure: as §1

[3] = system: S. aureus BAA-2312 (Sa12); test: MIC, microdilution (CLSI); assay type: cell-based; details: Staphylococcus aureus, BAA2312; Sa12, methicillin-resistant S. aureus BAA-2312; n = 3; read-out: MIC
Procedure: as §1

[4] = system: S. epidermidis ATCC 700296 (Se); test: MIC, microdilution (CLSI); assay type: cell-based; details: Staphylococcus epidermidis, ATCC700296; Se, S. epidermidis ATCC 700296; n = 3; read-out: MIC
Procedure: as §1

[5] = system: S. aureus ATCC 25923 (Sa23); test: MIC, microdilution (CLSI); assay type: cell-based; details: Staphylococcus aureus, ATCC25923; Sa23, antibiotic susceptible S. aureus ATCC 25923; n = 3; read-out: MIC
Procedure: as §1

[6] = system: E. faecium ATCC 700221 (Ef21); test: MIC, microdilution (CLSI); assay type: cell-based; details: Enterococcus faecium, ATCC 700221 / VRE; Ef21, vancomycin-resistant (VRE) E. faecium ATCC 700221; n = 3; read-out: MIC
Procedure: as §1

[7] = system: S. aureus ATCC 33591 (Sa91); test: MIC, microdilution (CLSI); assay type: cell-based; details: Staphylococcus aureus, ATCC33591; Sa91, methicillin-resistant S. aureus ATCC 33591; n = 3; read-out: MIC
Procedure: as §1

[8] = system: Bacillus subtilis ATCC 6623 (Bs); test: MIC, microdilution (CLSI); assay type: cell-based; details: ATCC6623; Bs, Bacillus subtilis ATCC 6623; n = 3; read-out: MIC
Procedure: as §1

[9] = system: E. faecalis ATCC 51299 (Ef99); test: MIC, microdilution (CLSI); assay type: cell-based; details: Enterococcus faecalis, ATCC 51299 / VRE; Ef99, vancomycin-resistant (VRE) E. faecalis ATCC 51299; n = 3; read-out: MIC
Procedure: as §1

[10] = system: S. aureus ATCC 700699 (Sa99); test: MIC, microdilution (CLSI); assay type: cell-based; details: Staphylococcus aureus, ATCC700699; Sa99, methicillin-resistant S. aureus ATCC 700699; n = 3; read-out: MIC
Procedure: as §1

Gram-positive bacteria = test: MIC across the tested strains; assay type: cell-based; details: for antibacterial activity: tested bacteria; for MIC: across the tested strains
Procedure: as §1

S. aureus strains = test: MIC against S. aureus strains; assay type: cell-based, Staphylococcus aureus; details: for times more effective than vancomycin and daptomycin: against S. aureus strains
Procedure: as §1

Row | MIC (S. aureus strains; Staphylococcus aureus, S. aureus strains, including MRSA) [µg/mL] | Structure (SMILES) | MIC [1] [µg/mL] | MIC [2] [µg/mL] | MIC [3] [µg/mL] | MIC [4] [µg/mL] | MIC [5] [µg/mL] | MIC [6] [µg/mL] | MIC [7] [µg/mL] | MIC [8] [µg/mL] | MIC [9] [µg/mL] | MIC [10] [µg/mL] | antibacterial activity (Gram-positive bacteria) | MIC (Gram-positive bacteria) [µg/mL] | times more effective than vancomycin and daptomycin (S. aureus strains)
1 | – | O=C(O)c1ccc(NCc2cn(-c3ccc(C(=O)O)cc3)nc2-c2cc(C(F)(F)F)cc(C(F)(F)F)c2)cc1 [Compound 13, 4-[[3-[3,5-Bis(trifluoromethyl)phenyl]-1-(4-carboxyphenyl)pyrazol-4-yl]methylamino] benzoic acid] | > 32 | > 32 | 32 (≈ 58.2 µM) | > 32 | > 32 | > 32 | > 32 | > 32 | > 32 | > 32 | eliminated the activity | – | –
2 | – | O=C(O)c1ccc(-n2cc(CNc3cccc(C(=O)O)c3)c(-c3cc(C(F)(F)F)cc(C(F)(F)F)c3)n2)cc1 [Compound 12, 3-[[3-[3,5-Bis(trifluoromethyl)phenyl]-1-(4-carboxyphenyl)pyrazol-4-yl]methylamino] benzoic acid] | > 32 | > 32 | > 32 | > 32 | > 32 | > 32 | > 32 | > 32 | > 32 | > 32 | eliminated the activity | – | –
3 | 1 to 2 (≈ 1.83 to 3.65 µM) | CC(C)c1ccc(NCc2cn(-c3ccc(C(=O)O)cc3)nc2-c2cc(C(F)(F)F)cc(C(F)(F)F)c2)cc1 [Compound 2, 4-[3-[3,5-Bis(trifluoromethyl)phenyl]-4-[(4-isopropylanilino)methyl]pyrazol-1-yl] benzoic acid] | 2 (≈ 3.65 µM) | 1 (≈ 1.83 µM) | 1 (≈ 1.83 µM) | 2 (≈ 3.65 µM) | 2 (≈ 3.65 µM) | 1 (≈ 1.83 µM) | 1 (≈ 1.83 µM) | 1 (≈ 1.83 µM) | 1 (≈ 1.83 µM) | 2 (≈ 3.65 µM) | – | – | –
4 | – | CSc1ccc(NCc2cn(-c3ccc(C(=O)O)cc3)nc2-c2cc(C(F)(F)F)cc(C(F)(F)F)c2)cc1 [Compound 6, 4-[3-[3,5-Bis(trifluoromethyl)phenyl]-4-[(4-methylsulfanylanilino)methyl]pyrazol-1-yl] benzoic acid] | 4 (≈ 7.25 µM) | 2 (≈ 3.63 µM) | 2 (≈ 3.63 µM) | 4 (≈ 7.25 µM) | 2 (≈ 3.63 µM) | 2 (≈ 3.63 µM) | 2 (≈ 3.63 µM) | 1 (≈ 1.81 µM) | 2 (≈ 3.63 µM) | 4 (≈ 7.25 µM) | – | 1 to 4 (≈ 1.81 to 7.25 µM) | –
5 | – | O=C(O)c1ccc(-n2cc(CNc3ccc(F)c(C(F)(F)F)c3)c(-c3cc(C(F)(F)F)cc(C(F)(F)F)c3)n2)cc1 [Compound 22, 4-[3-[3,5-Bis(trifluoromethyl)phenyl]-4-[[4-fluoro-3-(trifluoromethyl)anilino]methyl]pyrazol-1-yl] benzoic acid] | 2 (≈ 3.38 µM) | 1 (≈ 1.69 µM) | 1 (≈ 1.69 µM) | 2 (≈ 3.38 µM) | 1 (≈ 1.69 µM) | 1 (≈ 1.69 µM) | 1 (≈ 1.69 µM) | 2 (≈ 3.38 µM) | 2 (≈ 3.38 µM) | 1 (≈ 1.69 µM) | – | – | up to 4 times
6 | – | O=C(O)c1ccc(-n2cc(CNc3cc(Cl)c(F)cc3F)c(-c3cc(C(F)(F)F)cc(C(F)(F)F)c3)n2)cc1 [Compound 26, 4-[3-[3,5-Bis(trifluoromethyl)phenyl]-4-[(5-chloro-2,4-difluoro-anilino)methyl]pyraz-ol-1-yl] benzoic acid] | 1 (≈ 1.74 µM) | 1 (≈ 1.74 µM) | 0.25 (≈ 0.434 µM) | 4 (≈ 6.95 µM) | 2 (≈ 3.47 µM) | 0.25 (≈ 0.434 µM) | 2 (≈ 3.47 µM) | 0.25 (≈ 0.434 µM) | 2 (≈ 3.47 µM) | 1 (≈ 1.74 µM) | – | ≥ 0.25 | up to 4 times
7 | – | O=C(O)c1ccc(-n2cc(CNc3ccc(F)c(F)c3)c(-c3cc(C(F)(F)F)cc(C(F)(F)F)c3)n2)cc1 [Compound 17, 4-[3-[3,5-Bis(trifluoromethyl)phenyl]-4-[(3,4-difluoroanilino)methyl]pyrazol-1-yl] benzoic acid] | 4 (≈ 7.39 µM) | 2 (≈ 3.69 µM) | 2 (≈ 3.69 µM) | 4 (≈ 7.39 µM) | 2 (≈ 3.69 µM) | 2 (≈ 3.69 µM) | 2 (≈ 3.69 µM) | 1 (≈ 1.85 µM) | 4 (≈ 7.39 µM) | 2 (≈ 3.69 µM) | – | 1 to 4 (≈ 1.85 to 7.39 µM) | –
8 | – | O=C(O)c1ccc(-n2cc(CNc3ccc(Cl)c(Cl)c3)c(-c3cc(C(F)(F)F)cc(C(F)(F)F)c3)n2)cc1 [Compound 19, 4-[3-[3,5-Bis(trifluoromethyl)phenyl]-4-[(3,4-dichloroanilino)methyl]pyrazol-1-yl] benzoic acid] | 1 (≈ 1.74 µM) | 1 (≈ 1.74 µM) | 0.5 (≈ 0.871 µM) | 1 (≈ 1.74 µM) | 1 (≈ 1.74 µM) | 1 (≈ 1.74 µM) | 0.5 (≈ 0.871 µM) | 1 (≈ 1.74 µM) | 1 (≈ 1.74 µM) | 2 (≈ 3.48 µM) | – | ≥ 0.5 | up to 4 times
9 | – | O=C(O)c1ccc(-n2cc(CNc3cc(Cl)cc(Cl)c3)c(-c3cc(C(F)(F)F)cc(C(F)(F)F)c3)n2)cc1 [Compound 20, 4-[3-[3,5-Bis(trifluoromethyl)phenyl]-4-[(3,5-dichloroanilino)methyl]pyrazol-1-yl] benzoic acid] | 1 (≈ 1.74 µM) | 1 (≈ 1.74 µM) | 1 (≈ 1.74 µM) | 2 (≈ 3.48 µM) | 1 (≈ 1.74 µM) | 1 (≈ 1.74 µM) | 0.5 (≈ 0.871 µM) | 1 (≈ 1.74 µM) | 1 (≈ 1.74 µM) | 1 (≈ 1.74 µM) | – | ≥ 0.5 | up to 4 times
10 | – | Cc1cc(NCc2cn(-c3ccc(C(=O)O)cc3)nc2-c2cc(C(F)(F)F)cc(C(F)(F)F)c2)ccc1F [Compound 14, 4-[3-[3,5-Bis(trifluoromethyl)phenyl]-4-[(4-fluoro-3-methyl-anilino)methyl]pyrazol-1-yl] benzoic acid] | 2 (≈ 3.72 µM) | 1 (≈ 1.86 µM) | 1 (≈ 1.86 µM) | 4 (≈ 7.44 µM) | 2 (≈ 3.72 µM) | 1 (≈ 1.86 µM) | 2 (≈ 3.72 µM) | 1 (≈ 1.86 µM) | 2 (≈ 3.72 µM) | 2 (≈ 3.72 µM) | – | ≥ 1 | –
